From patent US20230414564A1, “BLUE LIGHT OXIDATION INHIBITOR AND SCREENING METHOD FOR SAME” (SHISEIDO COMPANY, LTD., priority 2020, published 2023)
“Also recorded” adds a separate entry of the source.

What was measured:
[1] = UPE count method (in vitro), linoleic acid mixture irradiated with blue light or UVA; conditions: for blue light oxidation-inhibiting effect (rate of change in blue light-induced UPE): 5 wt % aqueous solution of candidate in linoleic acid mixture, blue light 430 nm LED 6 mW/cm^2, 10 minutes, UPE integrated for 300 seconds; for inhibiting effect against blue light oxidation compared with inhibiting effect against oxidation by UVA (UPE): linoleic acid mixture, blue light 430 nm vs UVA 300 to 400 nm
Experimental: The candidate substances listed in Table 1 were added to ultrapure water to prepare 5 wt % aqueous solutions as samples.
The samples were prepared by mixing the substances in the following compositions with linoleic acid and oleic acid as biological components. As a control, ultrapure water was used instead of a 5% aqueous solution of the candidate substance.
A 2 mL portion of the sample prepared by the method described above was added to a plastic container and irradiated with 6 mW/cm^2 blue light (430 nm LED, CL-H1-430-9-1, Asahi Spectra Co., Ltd.) using an LED light source (CL-1501, Asahi Spectra Co., Ltd.), for a period of 10 minutes. The experiment was conducted while shielded, to exclude the effects of light of other wavelengths. For the control, ultrapure water was added instead of the starting material aqueous solution.
The irradiated sample was transferred to a quartz glass container and set in the black box of a photon counter (Tohoku Electronic Industrial Co.). Photon counting of UPE was initiated one minute after irradiation was complete. UPE was detected by a built-in photomultiplier tube (PMT, R2257P, Hamamatsu Photonics, K.K.) in the photon counter, with measurement being conducted while shielded.
The integrated value of UPE intensity for 300 seconds after the start of UPE measurement was determined and the rate of change in UPE was calculated by formula 2, to evaluate the oxidative stress inhibiting effect.
Rate of change in UPE=(UPE intensity of material added sample−UPE intensity of control sample (non-irradiated))−(UPE intensity of control sample−UPE intensity of control sample (non-irradiated)) Formula 2: […]

[2] = DPPH radical scavenging rate (DPPH Antioxidant Assay Kit); conditions: 5 wt %, 1 wt % and 0.2 wt % aqueous solutions; 30 minutes at 25° C.; absorbance at 517 nm
From the text: Methods for measuring oxidation inhibiting effects by radical scavenging rate evaluation are known. The present inventors therefore examined oxidation inhibiting effects of the aforementioned candidate substances at different concentrations, by the following procedure using a DPPH Antioxidant Assay Kit (Dojindo Laboratories).
The candidate substances of Example 1 were used as 5 wt %, 1 wt % and 0.2 wt % aqueous solutions. Blank 1, Blank 2, Sample and Sample Blank Solution listed in Table 3 were prepared by the manufacturer's protocol described in general below, and the radical scavenging rates were calculated.
• 1. Each candidate substance was loaded into a 96 well plate as a 5 wt %, 1 wt % or 0.2 wt % aqueous solution. • 2. Water was added to Blank 1 and Blank 2 at 20 μl each. • 3. Assay Buffer was added at 80 μl to each well. • 4. After adding 100 μl of ethanol to Blank 2 and the Sample blank, it was thoroughly mixed by pipetting. • After adding 100 μl of DPPH working solution to the sample and Blank1, it was thoroughly mixed by pipetting. • 6. The plate was incubated for 30 minutes at 25° C. in a dark environment. • 7. The absorbance at 517 nm was measured with a plate reader (Spectramax 250, Molecular Devices). • 8. The radical scavenging rate (%) of each sample was calculated by the following formula 3.
Radical scavenging rate (%)=[…]×100 Formula 3:
(ACS=Blank1−Blank2, AS=Sample−Sample Blank)

[3] = UPE count method (in vitro), linoleic acid mixture irradiated with blue light or UVA; conditions: 5 wt % aqueous solution in linoleic acid mixture; UVA lamp 300 to 400 nm 3.5 mW/cm^2
[4] = tested on: human skin tissue; assay: Measurement of oxidative stress by UPE imaging on human skin tissue; conditions: 20 μL of 5% aqueous solution on stratum corneum side, 40 minutes; blue light 430 nm 6 mW/cm^2, 10 minutes
Experimental: A 20 μL aqueous solution of 5% hypotaurine was applied to the center of the stratum corneum side of human skin tissue (KAC Co., dorsal region), and allowed to stand for 40 minutes while shielded.
After irradiation with blue light (430 nm LED, 6 mW/cm^2) for 10 minutes, the hypotaurine aqueous solution was wiped off and immediately observed by UPE imaging using a high-sensitivity cooled CCD camera (850S CCD42-40, Spectral Instruments Inc.), while shielded (photographing time: 10 minutes).

| SMILES | blue light oxidation-inhibiting effect (rate of change in blue light-induced UPE) [1] | DPPH radical scavenging power (radical scavenging rate) [2] | blue light oxidation-inhibiting effect (rate of change in blue light-induced UPE) ([1]; listed as ascorbic acid glucoside) | blue light oxidation-inhibiting effect (rate of change in blue light-induced UPE) ([1]; listed as cysteine) | UV oxidation inhibiting effect (rate of change in UV light-induced UPE) [3] | inhibiting effect against blue light oxidation compared with inhibiting effect against oxidation by UVA (UPE) [1] | UPE intensity after blue light irradiation (UPE imaging) [4] |
| --- | --- | --- | --- | --- | --- | --- | --- |
| O=C1O[C@H]([C@@H](O)CO)C(O)=C1O [L(+)-ascorbic acid, L(+)-Ascorbic acid] | high blue light oxidation-inhibiting effect; also recorded: excellent blue light oxidation-inhibiting effects | high radical scavenging power | – | – | – | – | – |
| O=C1O[C@H]([C@@H](O)CO)C(O)=C1O[C@H]1O[C@H](CO)[C@@H](O)[C@H](O)[C@H]1O [L-ascorbic acid glucoside, L-Ascorbic acid glucoside, reference compound] | not found to have significant blue light oxidation-inhibiting effects | high radical scavenging power | little of the blue light oxidation-inhibiting effect | – | – | – | – |
| N[C@@H](CS)C(=O)O [L-cysteine, L-Cysteine, reference compound] | not found to have significant blue light oxidation-inhibiting effects | high radical scavenging power | – | little of the inhibiting effect against blue light oxidation | – | – | – |
| CC(C)(CO)[C@@H](O)C(=O)NCCC(=O)NCCSS(=O)(=O)[O-].CC(C)(CO)[C@@H](O)C(=O)NCCC(=O)NCCSS(=O)(=O)[O-].[Ca+2] [calcium pantetheine-S-sulfonate] | high blue light oxidation-inhibiting effect; also recorded: excellent blue light oxidation-inhibiting effects | High radical scavenging power was not observed | – | – | UV oxidation inhibiting effect was found | – | – |
| NCCS(=O)O [hypotaurine, Hypotaurine] | high inhibiting effect against blue light oxidation; also recorded: excellent blue light oxidation-inhibiting effects | high radical scavenging power | – | – | – | higher than the inhibiting effect against oxidation by UVA | lowered |
| NCCS(=O)(O)=S [thiotaurine, Thiotaurine] | high inhibiting effect against blue light oxidation; also recorded: excellent blue light oxidation-inhibiting effects | High radical scavenging power was not observed | – | – | – | higher than the inhibiting effect against oxidation by UVA | – |
